Reference: publication PMC12552596 (Nature Communications, 2025)

Biological target: T1, human glucose-6-phosphate transporter (G6PT) (Homo sapiens, UniProt O43826, W138F)
T1 sequence (O43826 1-429 W138F): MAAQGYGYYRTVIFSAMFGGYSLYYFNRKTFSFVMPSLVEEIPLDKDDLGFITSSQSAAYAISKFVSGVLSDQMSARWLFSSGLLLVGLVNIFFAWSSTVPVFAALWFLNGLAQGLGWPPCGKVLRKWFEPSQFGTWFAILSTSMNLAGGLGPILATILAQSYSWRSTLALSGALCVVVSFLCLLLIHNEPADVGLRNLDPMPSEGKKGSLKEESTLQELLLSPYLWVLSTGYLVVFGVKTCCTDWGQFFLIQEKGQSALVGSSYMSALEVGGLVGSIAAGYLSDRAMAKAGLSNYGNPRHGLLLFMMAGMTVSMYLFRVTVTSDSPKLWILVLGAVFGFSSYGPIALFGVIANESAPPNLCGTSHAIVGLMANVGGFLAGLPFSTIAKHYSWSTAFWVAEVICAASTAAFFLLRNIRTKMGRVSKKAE
T1 sequence (P35575 1-357 partner): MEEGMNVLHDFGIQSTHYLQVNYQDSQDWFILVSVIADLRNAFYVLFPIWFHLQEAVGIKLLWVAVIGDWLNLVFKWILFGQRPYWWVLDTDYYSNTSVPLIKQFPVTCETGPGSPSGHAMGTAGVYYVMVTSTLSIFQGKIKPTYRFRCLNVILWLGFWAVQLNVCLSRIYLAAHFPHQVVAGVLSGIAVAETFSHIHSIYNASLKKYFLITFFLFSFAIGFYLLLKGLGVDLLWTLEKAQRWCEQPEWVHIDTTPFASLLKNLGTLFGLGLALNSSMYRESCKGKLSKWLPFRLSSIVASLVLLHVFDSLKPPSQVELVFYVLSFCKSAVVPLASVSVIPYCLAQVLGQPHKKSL
Assay type: cell-based

IC50: 523 ± 210 µM
SMILES: O=C(/C=C/c1ccc(O)c(O)c1)O[C@@H]1C[C@](O)(C(=O)O)C[C@@H](O)[C@H]1O [CHA, chlorogenic acid]
